Source: patent US12016847B2, “Methods of treating prostate cancer” (Bristol-Myers Squibb Company, priority 2021, dated 2024)

Experiments:
KLK3 [1] = test: Gene expression analysis (qPCR), KLK3 in VCaP cells; assay type: cell-based; conditions: 48 h
Experimental: (§1) VCaP, LNCaP, 22Rv.1, DU145 and PC3 cancer cell lines were obtained from ATCC. VCaP were cultured in DMEM media supplemented with 8% FBS, LNCaP, 22Rv.1 and DU145 were cultured in RPMI1640 media supplemented with 10% FBS, and PC3 were cultured in F12K media supplemented with 10% FBS.
(§2) Cells were plated in a 6-well format and were allowed to adhere 24 h before treatment. Cells were treated for 48 h before collecting them. RNA was purified from cells using the RNeasy kit (Qiagen) according to the manufacturer's instructions. Quantitative RTPCR was performed using the TaqMan assay (Thermo Fisher Scientific) on the ABI QuantStudio 7 Flex Real-Time PCR System.

TMPRSS2 [2] = test: Gene expression analysis (qPCR), TMPRSS2 in 22Rv.1 cells; assay type: cell-based; conditions: 48 h
Experimental: as §1, §2

TMPRSS2 [3] = test: Gene expression analysis (qPCR), TMPRSS2 in VCaP cells; assay type: cell-based; conditions: 48 h
Experimental: as §1, §2

KLK3 [4] = test: Gene expression analysis (qPCR), KLK3 in LNCaP cells; assay type: cell-based, human; conditions: 48 h
Experimental: as §1, §2

MYC [5] = test: Gene expression analysis (qPCR), MYC in 22Rv.1 cells; assay type: cell-based; conditions: 48 h
Experimental: as §1, §2

LNCaP cells = test: Proliferation assay (Cell Titer-Glo), LNCaP cells; assay type: cell-based, human; conditions: 3 days of treatment, at 1 uM, related to Day 0 and DMSO
Experimental: as §1
(§3) Cells were plated in a 96-well format and were allowed to adhere 24 h before treatment. Drugs were titrated 1:3 from 1 μM to 0.1 nM with 9 doses in triplicate. Cell proliferation was measured on the day of treatment (Day 0) and on Day 3 using Cell Titer-Glo reagent (Promega) according to the manufacturer's instructions. Cell growth normalized to the DMSO vehicle control and to Day 0 was fitted by nonlinear regression using GraphPad Prism 7.03 (GraphPad Software, Inc.).

KLK3 [6] = test: Gene expression analysis (qPCR), KLK3 in 22Rv.1 cells; assay type: cell-based; conditions: 48 h
Experimental: as §1, §2

HEXIM1 [7] = test: Gene expression analysis (qPCR), HEXIM1 in LNCaP cells; assay type: cell-based, human; conditions: 48 h
Experimental: as §1, §2

VCaP cells = test: Proliferation assay (Cell Titer-Glo), VCaP cells; assay type: cell-based; conditions: 3 days
Experimental: as §1, §3

PC3 cells = test: Proliferation assay (Cell Titer-Glo), PC3 cells; assay type: cell-based; conditions: 3 days
Experimental: as §1, §3

DU145 cells = test: Proliferation assay (Cell Titer-Glo), DU145 cells; assay type: cell-based; conditions: 3 days
Experimental: as §1, §3

22Rv.1 cells = test: Proliferation assay (Cell Titer-Glo), 22Rv.1 cells; assay type: cell-based; conditions: Homo sapiens, 22Rv1, 72 h, 3 days
Experimental: as §1, §3

MYC [8] = test: Gene expression analysis (qPCR), MYC in LNCaP cells; assay type: cell-based, human; conditions: 48 h
Experimental: as §1, §2

MYC [9] = test: Gene expression analysis (qPCR), MYC in VCaP cells; assay type: cell-based; conditions: 48 h
Experimental: as §1, §2

HEXIM1 [10] = test: Gene expression analysis (qPCR), HEXIM1 in VCaP cells; assay type: cell-based; conditions: 48 h
Experimental: as §1, §2

HEXIM1 [11] = test: Gene expression analysis (qPCR), HEXIM1 in 22Rv.1 cells; assay type: cell-based; conditions: 48 h
Experimental: as §1, §2

[12] = tested on: Neuroendocrine prostate cancer models; test: Proliferation assay, all Neuroendocrine prostate cancer models tested (summary); assay type: cell-based; conditions: DU145 and PC3 models, summary statement
Experimental: as §1, §3

Cc1nnn(C)c1-c1cnc2c3ccc(C(C)(C)O)cc3n([C@H](c3ccccc3)C3CCOCC3)c2c1 [Compound A, 2-[3-(1,4-dimethyl-1H-1,2,3-triazol-5-yl)-5-[(S)-(oxan-4-yl)(phenyl)methyl]-5H-pyrido[3,2-b]indol-7-yl]propan-2-ol]
downregulation of KLK3 compared to DMSO (KLK3 [1]; 4 nM): 96.9%
downregulation of KLK3 compared to DMSO (KLK3 [1]; 40 nM): 99.4%
reduction of TMPRSS2 compared to DMSO (TMPRSS2 [2]; 4 nM): 97.0%
reduction of TMPRSS2 compared to DMSO (TMPRSS2 [2]; 40 nM): 97.8%
downregulation of TMPRSS2 (TMPRSS2 [3]; 4 nM): 32.8%
downregulation of TMPRSS2 (TMPRSS2 [3]; 40 nM): 51.9%
downregulation of KLK3 (KLK3 [4]; 4 nM): 58.8%
downregulation of KLK3 (KLK3 [4]; 40 nM): 92.0%
downregulation of MYC (MYC [5]; 4 nM): 98.5%
downregulation of MYC (MYC [5]; 40 nM): 99.3%
growth arrest of LNCaP cells (LNCaP cells): 100%
downregulation of KLK3 (KLK3 [6]; 4 nM): 99.9%
downregulation of KLK3 (KLK3 [6]; 40 nM): 99.8%
upregulation of HEXIM1 (HEXIM1 [7]; 4 nM): 446.8%
upregulation of HEXIM1 (HEXIM1 [7]; 40 nM): 533.3%
growth arrest of VCaP proliferation (VCaP cells; at 0.1 uM, related to Day 0 and DMSO): 100%
cytotoxic effect on VCaP cells (VCaP cells; at the highest concentrations): cytotoxic effects
reduction of PC3 proliferation (PC3 cells): 67%
IC50 (PC3 cells; Homo sapiens, PC-3, 72 h): 4.1 nM
reduction of DU145 proliferation (DU145 cells): 61.9%
IC50 (22Rv.1 cells): 1.7 nM
downregulation of MYC (MYC [8]; 4 nM): 84.1%
downregulation of MYC (MYC [8]; 40 nM): 93.6%
reduction in MYC expression (MYC [9]; 4 nM): 91.4%
MYC downregulation (MYC [9]; 40 nM): 95.7%
HEXIM1 upregulated compared to DMSO (HEXIM1 [10]; 4 nM): 968.0%
HEXIM1 upregulated compared to DMSO (HEXIM1 [10]; 40 nM): 1257.5%
induction of HEXIM1 (HEXIM1 [11]; 4 nM): 31%
upregulation of HEXIM1 (HEXIM1 [11]; 40 nM): 91.5%
reduction of cell proliferation in all Neuroendocrine prostate cancer models tested [12]: ≥ 61.9%
